experiment: gradient 5% acetonitrile 3 min, to 50% in 2 min, to 85% in 15 min, held 3 min, 100 µL/min; settings: column: Zorbax Extend-C18 2.1 x 50 mm; eluents: water / acetonitrile, 0.1% formic acid
Method in brief: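 The mobile phases were water and acetonitrile, each with 0.1% formic acid, pumped at 100 μL/min through a Zorbax Extend-C18 column (2.1 × 50 mm, 1.8 μm). Pure standards were injected as mixtures of ~100 molecules and detected by a quadrupole time-of-flight mass spectrometer in positive and negative ionization mode. Retention time came from computationally picked adduct peaks, each inspected by hand.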

Row | SMILES | RP-LC retention time [s]
1 | Cn1ncc(N2CCCC(C(=O)NC3CCCCCC3)C2)cc1=O (stereo not drawn) | 726
2 | Cc1oc(C2CCN(S(=O)(=O)c3ccc(C#N)cc3)CC2)nc1C(=O)N1CCOCC1 | 760
3 | CCOc1ccc(N2CC(NC(=O)N3CCN(C(=O)c4ccco4)CC3)CC2=O)cc1 (stereo not drawn) | 632
4 | Cc1sc(-c2cc(C(F)(F)F)on2)cc1S(=O)(=O)N1CCOCC1 | 1040
5 | O=C(NC1CCCC1)C1CCN(S(=O)(=O)c2cc(C(=O)N3CCCCCC3)cs2)CC1 | 836
6 | CCOC(=O)c1c(NC(=O)CN2CCN(CC)CC2)sc(C)c1C | 596
7 | Cc1ccc2nc(N3CCN(c4ccccc4F)CC3)c(-c3noc(C)n3)cc2c1 | 730
8 | COc1ccc(-c2noc(CN3CCN(c4ccc(OC)cc4)CC3)n2)cc1 | 809
9 | COc1ccc(OC)c(CNC(=O)c2[nH]c3cc(C)sc3c2CN(C)C)c1 | 676
10 | C[C@@]1(c2cc(-c3cncnc3)c(F)cc2F)CCSC(N)=N1 | 654
11 | COc1ccc(-c2n[nH]c3c2C(c2cc(OC)ccc2OC)NC3=O)cc1 (stereo not drawn) | 729
12 | O=C(Cc1ccccc1Cl)NCC1CCN(C(=O)Oc2ccccc2)CC1 | 704
13 | CCNS(=O)(=O)c1ccc(NC(=O)C2CCN(C(=O)C(C)(C)C)CC2)cc1 | 722
14 | CCc1ccc(C(C)NC(=O)C2CCN(c3nnc(-c4ccc(OC)cc4)o3)CC2)cc1 (stereo not drawn) | 943
15 | CC1(C(=O)NC2CCCCCC2)CN(S(C)(=O)=O)CC(=O)N1c1cccc(F)c1 (stereo not drawn) | 835
16 | CC1(C(=O)NCc2ccccc2)Cn2cnc(C(=O)NC3CC3)c2C(=O)N1C1CC1 (stereo not drawn) | 660
17 | Cn1cc(CN2CCn3c(nnc3[C@@H]3C[C@@H](O)CN3Cc3cccnc3)C2)c2ccccc21 | 575
18 | COc1ccc(NC(=O)N2CCC(CC(=O)N3CCCCC3)CC2)cc1Cl | 774

Row | SMILES | RP-LC retention time [s]
19 | CCOc1ccc(-c2noc(-c3nn(-c4cccc(OC)c4)ccc3=O)n2)cc1 | 938
20 | O=C(NCCC1CCN(S(=O)(=O)c2ccccc2)CC1)Nc1ccccc1 | 856
21 | Brc1ccc(CSc2nnc(-c3ccccc3)o2)cc1 | 1180
22 | O=c1c2cnn(-c3ccc(F)cc3)c2ncn1Cc1nc(-c2cccc(Br)c2)no1 | 1130
23 | CC1=C(c2ccccc2)S(=O)(=O)N=C1N1CCCN(C(=O)C2CCCO2)CC1 (stereo not drawn) | 702
24 | CCc1ccc(S(=O)(=O)c2cnc(N3CCN(c4ccccc4Cl)CC3)nc2N)cc1 | 1290
25 | Cc1nnsc1C(=O)N1CC2CC(C1)c1cccc(=O)n1C2 (stereo not drawn) | 551
26 | COc1ccc(C(=O)Nc2nnc(SCc3nnc(-c4ccc5c(c4)OCO5)o3)s2)cc1OC | 834
27 | O=C(CSc1nnc(CNC(=O)c2cccc(C(F)(F)F)c2)o1)NCC1CCCO1 (stereo not drawn) | 664
28 | O=C(Nc1cc(-c2ccccn2)no1)c1ccccc1Br | 789
29 | O=C(CCC1CCN(c2cc(NC3CC3)ncn2)CC1)NCCN1CCc2ccccc2C1 | 574
30 | C#Cc1cccc(Nc2ncnc3cc(OC)c(OCCCCCCC(=O)NO)cc23)c1 | 707
31 | O=C(CC(c1ccccc1)c1ccccc1)N1CC(c2nc(-c3ccccc3)no2)C1 | 1020
32 | O=C(NCc1ccco1)c1c(O)c2cccnc2n(Cc2ccccc2)c1=O | 1250
33 | Cc1ccc(C)c(NC(=O)CCCN2C(=O)COc3ccc(C)cc32)c1 | 978
34 | Cc1ccc(NC(=O)N(C)CC2CCOCC2)cc1C | 795
35 | CC1Oc2ccccc2OC1C(=O)NCCn1nc(-c2ccco2)ccc1=O (stereo not drawn) | 722
36 | Cc1ccccc1OCC(=O)N1CCCC(COCc2ccccc2)C1 (stereo not drawn) | 1030

Results, then the compound that gave them:

Row | RP-LC retention time [s] | SMILES
37 | 913 | COc1ccc(C(=O)C(C)OC(=O)C(C)N2C(=O)c3ccccc3C2=O)cc1 (stereo not drawn)
38 | 1270 | Cc1ccccc1-c1nc(-c2ccc3c(c2)oc(=O)n3C(C)C)no1
39 | 599 | CCn1ncc2ccc(C(N)=O)cc21
40 | 812 | CCOC(=O)C(C)NC(=O)Nc1cc(F)c2nc(N3CCOCC3)ccc2c1 (stereo not drawn)
41 | 771 | CCc1cc(=O)n(CC(=O)Nc2cc(Cl)ccc2C)c(N2CCOCC2)n1
42 | 737 | Cc1ccn2c(NC(=O)c3ccc(C)c(C)c3)c(-c3ccc(F)cc3)nc2c1
43 | 727 | COCC1CCN(C(=O)C2CCN(c3cnn(Cc4ccccc4)c(=O)c3)CC2)CC1
44 | 561 | CCn1c(C2CCN(S(=O)(=O)Cc3ccc(F)cc3Cl)C2)nc2ccncc21 (stereo not drawn)
45 | 837 | COc1nn(C)cc1C(=O)Nc1nc(-c2nc3ccccc3s2)cs1
46 | 617 | O=C(Cn1cccc1-c1nnc(-c2ccccc2)o1)NCc1cccnc1
47 | 744 | CCc1ccccc1NC(=O)Cn1nc(N2CCOCC2)c2ccccc2c1=O
48 | 786 | Cn1nccc1-c1cccc(-c2noc(-c3cnccn3)n2)c1
49 | 861 | Cc1cccc(NC(=O)Cn2c(C)nc3onc(C)c3c2=O)c1C
50 | 790 | COc1ccc(C(=O)N2CCC(c3noc(-c4cnccn4)n3)C2)cn1 (stereo not drawn)
51 | 1180 | Cc1ccc(-c2csc(NC(=O)c3cccs3)n2)cc1C
52 | 669 | CCCCCc1cccnc1

Row | RP-LC retention time [s] | SMILES
53 | 667 | COc1ccc(CNC(=O)Cn2ncc3c(c2=O)N(C2CC2)C(=O)CS3)cc1
54 | 854 | COc1ccc(C(=O)NC2(c3nc(C)no3)CCCCC2)cc1F
55 | 680 | CCc1ccc(CNC(=O)c2ccc3[nH]c4c(c3c2)CN(C(C)=O)CC4)cc1
56 | 776 | CCn1c(=O)c2c(cc(C)n2C)n(CC(=O)Nc2ccccc2C)c1=O
57 | 613 | O=C(NCCCOC(=O)c1ccccc1)c1ccncc1
58 | 733 | Cc1cc(C(=O)Nc2c3c(nn2-c2ccccc2)CCC3)nn1C
59 | 585 | Cc1ccc(CNC(=O)c2ccc3c(c2)ncn3CCN2CCCC2)cc1
60 | 716 | CCCCCCNc1nc(-c2ccc(OC)cc2)c(CCC(=O)O)s1
61 | 971 | CCc1nn2c(CNS(=O)(=O)c3cccc(Cl)c3)c(-c3ccccc3)nc2s1
62 | 592 | Cc1cc(Cl)ccc1S(=O)(=O)NCCn1c(C)cnc1C1CCC1
63 | 687 | CCOc1ccc(CNC(=O)c2cn3ccccc3n2)cc1
64 | 726 | CN1C(=O)CSc2cnn(CC(=O)N3CCCc4ccccc43)c(=O)c21
65 | 591 | CC(C)N1CCN(c2ncc(C(=O)Nc3ccccc3)c(N)n2)CC1
66 | 686 | Cc1ccc2[nH]c(=O)c(CCC(=O)N3CCN(c4ncccn4)CC3)cc2c1
67 | 964 | Cc1ccc(NC(=O)Nc2cccn3nc(C(C)C)nc23)cc1
68 | 1130 | O=C(c1cc(F)ccc1Cl)N1CCc2nc(-c3ccc(Cl)cc3)ncc2C1
